Reference: ChEMBL document CHEMBL1143937, “1-deoxyrubralactone, a novel specific inhibitor of families X and Y of eukaryotic DNA polymerases from a fungal strain derived from sea algae” (Bioorg Med Chem, 2008)
Active and inactive are the calls of the source. The rule behind the calls is not given here.

How the values were obtained:
[1] = molecular target: Human immunodeficiency virus type 1 reverse transcriptase (Human immunodeficiency virus 1) (UniProt Q72547); assay: Inhibition of human immunodeficiency virus 1 reverse transcriptase at 100 uM
Homo sapiens [2] = species on record: Homo sapiens; assay: Inhibition of human DNA polymerase epsilon at 100 uM
Bos taurus [3] = species on record: Bos taurus; assay: Inhibition of calf terminal deoxynucleotidyl transferase at 100 uM
[4] = molecular target: Deoxyribonuclease-1 (Bos taurus) (UniProt P00639); assay: Inhibition of bovine deoxyribonuclease 1 at 100 uM
Chain of Deoxyribonuclease-1 (Bos taurus) (P00639 whole entry): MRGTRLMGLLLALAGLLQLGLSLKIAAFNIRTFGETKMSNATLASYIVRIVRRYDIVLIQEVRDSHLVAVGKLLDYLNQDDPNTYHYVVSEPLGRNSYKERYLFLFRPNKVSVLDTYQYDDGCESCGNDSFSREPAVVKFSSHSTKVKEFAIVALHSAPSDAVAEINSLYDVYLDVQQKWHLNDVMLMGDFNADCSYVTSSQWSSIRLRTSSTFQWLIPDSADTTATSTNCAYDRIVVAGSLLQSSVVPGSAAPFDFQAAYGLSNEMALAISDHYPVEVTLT

Escherichia phage T7 = assay: Inhibition of T7 RNA polymerase […] at 100 uM
DNA polymerase kappa = molecular target: T1, DNA polymerase kappa (Homo sapiens, UniProt Q9UBT6); assay: Inhibition of human DNA polymerase kappa
T1 sequence (Q9UBT6 whole entry): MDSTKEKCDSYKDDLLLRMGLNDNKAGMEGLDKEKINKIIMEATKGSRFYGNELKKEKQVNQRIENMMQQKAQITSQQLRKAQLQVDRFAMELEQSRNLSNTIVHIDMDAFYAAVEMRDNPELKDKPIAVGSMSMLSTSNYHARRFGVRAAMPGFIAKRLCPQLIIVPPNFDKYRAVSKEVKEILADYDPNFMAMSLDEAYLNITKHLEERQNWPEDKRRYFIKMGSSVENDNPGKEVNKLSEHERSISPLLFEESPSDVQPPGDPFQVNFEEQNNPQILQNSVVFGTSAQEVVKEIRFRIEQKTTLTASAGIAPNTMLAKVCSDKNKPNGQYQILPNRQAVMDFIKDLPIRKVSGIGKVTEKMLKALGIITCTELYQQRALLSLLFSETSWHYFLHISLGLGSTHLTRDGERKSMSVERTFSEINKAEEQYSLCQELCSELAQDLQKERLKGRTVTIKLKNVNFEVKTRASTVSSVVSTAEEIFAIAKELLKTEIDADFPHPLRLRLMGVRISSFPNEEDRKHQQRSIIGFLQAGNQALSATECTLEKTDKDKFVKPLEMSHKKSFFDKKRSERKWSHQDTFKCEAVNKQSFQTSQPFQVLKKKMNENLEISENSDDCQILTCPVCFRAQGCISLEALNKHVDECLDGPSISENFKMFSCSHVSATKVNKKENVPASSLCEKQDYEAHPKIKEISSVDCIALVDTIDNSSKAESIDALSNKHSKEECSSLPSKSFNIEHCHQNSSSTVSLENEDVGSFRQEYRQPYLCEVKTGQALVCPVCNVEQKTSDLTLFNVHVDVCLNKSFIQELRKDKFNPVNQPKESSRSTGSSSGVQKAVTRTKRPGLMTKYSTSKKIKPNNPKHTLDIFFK

Escherichia coli = assay: Inhibition of Escherichia coli DNA polymerase 1 at 100 uM
[5] = molecular target: Inosine-5'-monophosphate dehydrogenase 2 (Mus musculus) (UniProt P24547); assay: Inhibition of mouse IMP dehydrogenase 2 at 100 uM
Chain of Inosine-5'-monophosphate dehydrogenase 2 (Mus musculus) (P24547 whole entry, looked up): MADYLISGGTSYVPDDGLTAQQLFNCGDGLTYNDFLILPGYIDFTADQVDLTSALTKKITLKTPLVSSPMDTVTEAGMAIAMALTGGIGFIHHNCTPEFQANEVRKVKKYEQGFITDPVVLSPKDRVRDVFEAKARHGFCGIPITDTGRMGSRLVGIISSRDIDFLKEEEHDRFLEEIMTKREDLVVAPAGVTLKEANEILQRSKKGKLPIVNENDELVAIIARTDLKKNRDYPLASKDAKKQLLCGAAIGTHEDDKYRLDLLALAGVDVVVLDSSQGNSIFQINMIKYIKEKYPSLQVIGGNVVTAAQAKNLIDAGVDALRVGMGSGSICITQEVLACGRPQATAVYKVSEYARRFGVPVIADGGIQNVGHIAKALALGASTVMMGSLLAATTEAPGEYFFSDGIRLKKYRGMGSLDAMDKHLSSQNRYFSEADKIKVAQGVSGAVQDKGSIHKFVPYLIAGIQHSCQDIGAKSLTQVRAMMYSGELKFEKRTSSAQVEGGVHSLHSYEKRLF

Homo sapiens [6] = species on record: Homo sapiens; assay: Inhibition of human DNA polymerase gamma at 100 uM
[7] = molecular target: Polynucleotide kinase (Enterobacteria phage T4) (UniProt P06855); assay: Inhibition of T4 polynucleotide kinase at 100 uM; settings: Tequatrovirus T4
Chain of Polynucleotide kinase (Enterobacteria phage T4) (P06855 whole entry): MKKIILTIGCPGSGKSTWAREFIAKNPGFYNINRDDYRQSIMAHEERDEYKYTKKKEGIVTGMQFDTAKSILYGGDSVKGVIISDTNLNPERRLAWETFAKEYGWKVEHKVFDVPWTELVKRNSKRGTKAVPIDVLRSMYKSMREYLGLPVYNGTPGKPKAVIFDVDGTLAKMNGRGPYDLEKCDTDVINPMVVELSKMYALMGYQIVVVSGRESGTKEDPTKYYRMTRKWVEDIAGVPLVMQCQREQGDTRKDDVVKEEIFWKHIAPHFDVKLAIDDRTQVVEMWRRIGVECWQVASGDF

Tequatrovirus T4 = assay: Inhibition of T4 DNA polymerase at 100 uM
[8] = molecular target: Telomerase reverse transcriptase (Homo sapiens) (UniProt O14746); assay: Inhibition of human telomerase at 100 uM
Chain of Telomerase reverse transcriptase (Homo sapiens) (O14746 whole entry): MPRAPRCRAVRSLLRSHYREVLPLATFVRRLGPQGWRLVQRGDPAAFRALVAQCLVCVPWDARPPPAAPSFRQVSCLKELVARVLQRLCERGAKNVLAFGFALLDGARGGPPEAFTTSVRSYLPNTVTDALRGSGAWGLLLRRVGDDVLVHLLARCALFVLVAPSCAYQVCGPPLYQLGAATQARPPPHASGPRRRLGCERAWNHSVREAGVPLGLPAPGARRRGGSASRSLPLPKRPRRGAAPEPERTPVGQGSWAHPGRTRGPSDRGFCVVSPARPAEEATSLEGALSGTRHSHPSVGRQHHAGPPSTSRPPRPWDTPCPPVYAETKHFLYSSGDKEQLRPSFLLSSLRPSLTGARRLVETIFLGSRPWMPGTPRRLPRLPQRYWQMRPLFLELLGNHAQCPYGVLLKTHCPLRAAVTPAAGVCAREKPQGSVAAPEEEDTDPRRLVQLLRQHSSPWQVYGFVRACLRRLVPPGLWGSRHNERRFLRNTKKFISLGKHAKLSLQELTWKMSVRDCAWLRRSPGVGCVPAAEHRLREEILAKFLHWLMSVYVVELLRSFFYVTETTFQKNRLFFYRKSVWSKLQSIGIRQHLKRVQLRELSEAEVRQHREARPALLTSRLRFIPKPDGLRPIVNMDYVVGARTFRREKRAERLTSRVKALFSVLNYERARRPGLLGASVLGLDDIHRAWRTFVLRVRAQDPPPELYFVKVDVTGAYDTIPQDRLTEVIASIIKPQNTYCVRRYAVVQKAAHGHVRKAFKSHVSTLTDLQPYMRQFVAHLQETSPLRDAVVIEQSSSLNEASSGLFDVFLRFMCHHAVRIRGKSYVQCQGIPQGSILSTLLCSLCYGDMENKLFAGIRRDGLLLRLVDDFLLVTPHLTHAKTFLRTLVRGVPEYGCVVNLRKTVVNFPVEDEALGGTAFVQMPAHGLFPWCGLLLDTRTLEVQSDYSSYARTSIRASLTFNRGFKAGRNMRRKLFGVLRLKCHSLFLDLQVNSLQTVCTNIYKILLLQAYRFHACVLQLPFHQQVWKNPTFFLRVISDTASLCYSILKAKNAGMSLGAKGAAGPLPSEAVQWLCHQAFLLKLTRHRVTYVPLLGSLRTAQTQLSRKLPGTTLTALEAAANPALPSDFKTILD

[9] = molecular target: T2, DNA polymerase delta catalytic subunit (Homo sapiens) (UniProt P28340); assay: Inhibition of human DNA polymerase delta at 100 uM
T2 sequence (whole entry): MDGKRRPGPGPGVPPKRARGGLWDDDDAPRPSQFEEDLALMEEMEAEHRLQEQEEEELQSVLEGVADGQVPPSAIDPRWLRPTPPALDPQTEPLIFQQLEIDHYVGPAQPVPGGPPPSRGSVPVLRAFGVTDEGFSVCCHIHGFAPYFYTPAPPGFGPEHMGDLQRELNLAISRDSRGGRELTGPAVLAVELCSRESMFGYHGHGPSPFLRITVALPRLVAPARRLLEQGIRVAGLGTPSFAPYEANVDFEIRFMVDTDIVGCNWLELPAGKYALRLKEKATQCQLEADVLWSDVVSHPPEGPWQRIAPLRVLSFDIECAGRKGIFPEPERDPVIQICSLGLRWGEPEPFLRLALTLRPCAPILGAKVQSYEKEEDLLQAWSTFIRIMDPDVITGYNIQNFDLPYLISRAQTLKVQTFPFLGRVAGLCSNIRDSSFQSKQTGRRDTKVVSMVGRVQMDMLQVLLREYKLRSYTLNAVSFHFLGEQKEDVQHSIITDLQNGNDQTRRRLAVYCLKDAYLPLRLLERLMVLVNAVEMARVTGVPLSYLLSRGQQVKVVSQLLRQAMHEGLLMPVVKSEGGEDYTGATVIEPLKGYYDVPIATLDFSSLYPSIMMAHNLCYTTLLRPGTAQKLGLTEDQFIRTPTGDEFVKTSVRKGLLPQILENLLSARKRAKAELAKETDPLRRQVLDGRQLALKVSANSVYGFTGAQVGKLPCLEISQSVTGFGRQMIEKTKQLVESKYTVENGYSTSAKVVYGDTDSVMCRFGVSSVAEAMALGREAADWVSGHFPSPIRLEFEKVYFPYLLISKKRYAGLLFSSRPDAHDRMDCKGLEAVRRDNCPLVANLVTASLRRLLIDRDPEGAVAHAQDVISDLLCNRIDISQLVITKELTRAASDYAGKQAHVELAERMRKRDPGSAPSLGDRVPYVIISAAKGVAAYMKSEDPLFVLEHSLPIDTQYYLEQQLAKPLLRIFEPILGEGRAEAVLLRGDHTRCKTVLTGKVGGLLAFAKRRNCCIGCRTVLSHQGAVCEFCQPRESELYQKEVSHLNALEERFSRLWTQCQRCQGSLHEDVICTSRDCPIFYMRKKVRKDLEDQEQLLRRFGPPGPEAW

Brassica oleracea [10] = assay: Inhibition of cauliflower DNA polymerase beta at 100 uM
[11] = molecular target: T3, DNA polymerase eta (Homo sapiens) (UniProt Q9Y253); assay: Inhibition of human DNA polymerase eta at 100 uM
T3 sequence (whole entry): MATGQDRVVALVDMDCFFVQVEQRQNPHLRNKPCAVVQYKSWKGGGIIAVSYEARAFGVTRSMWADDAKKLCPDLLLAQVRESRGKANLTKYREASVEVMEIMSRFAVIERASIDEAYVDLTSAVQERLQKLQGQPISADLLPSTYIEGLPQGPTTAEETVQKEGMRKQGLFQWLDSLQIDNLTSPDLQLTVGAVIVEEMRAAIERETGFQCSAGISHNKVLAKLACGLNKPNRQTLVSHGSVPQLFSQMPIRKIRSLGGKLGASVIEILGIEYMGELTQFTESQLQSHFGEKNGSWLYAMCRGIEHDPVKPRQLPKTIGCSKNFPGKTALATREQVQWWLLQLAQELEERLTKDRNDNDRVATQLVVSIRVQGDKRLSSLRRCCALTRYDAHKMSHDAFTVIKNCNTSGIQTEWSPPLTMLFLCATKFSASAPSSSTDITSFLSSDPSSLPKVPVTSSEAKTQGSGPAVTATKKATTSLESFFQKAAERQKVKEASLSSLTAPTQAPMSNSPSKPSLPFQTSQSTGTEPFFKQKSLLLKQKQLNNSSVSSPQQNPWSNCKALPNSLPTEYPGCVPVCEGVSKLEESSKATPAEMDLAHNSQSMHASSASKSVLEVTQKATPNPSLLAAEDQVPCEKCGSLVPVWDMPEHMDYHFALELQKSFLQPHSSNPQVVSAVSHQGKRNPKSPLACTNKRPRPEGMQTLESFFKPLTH

Thermus aquaticus = assay: Inhibition of Taq DNA polymerase at 100 uM
[12] = molecular target: T4, DNA polymerase lambda (Homo sapiens) (UniProt Q9UGP5); assay: Inhibition of human DNA polymerase lambda at 100 uM
T4 sequence (whole entry): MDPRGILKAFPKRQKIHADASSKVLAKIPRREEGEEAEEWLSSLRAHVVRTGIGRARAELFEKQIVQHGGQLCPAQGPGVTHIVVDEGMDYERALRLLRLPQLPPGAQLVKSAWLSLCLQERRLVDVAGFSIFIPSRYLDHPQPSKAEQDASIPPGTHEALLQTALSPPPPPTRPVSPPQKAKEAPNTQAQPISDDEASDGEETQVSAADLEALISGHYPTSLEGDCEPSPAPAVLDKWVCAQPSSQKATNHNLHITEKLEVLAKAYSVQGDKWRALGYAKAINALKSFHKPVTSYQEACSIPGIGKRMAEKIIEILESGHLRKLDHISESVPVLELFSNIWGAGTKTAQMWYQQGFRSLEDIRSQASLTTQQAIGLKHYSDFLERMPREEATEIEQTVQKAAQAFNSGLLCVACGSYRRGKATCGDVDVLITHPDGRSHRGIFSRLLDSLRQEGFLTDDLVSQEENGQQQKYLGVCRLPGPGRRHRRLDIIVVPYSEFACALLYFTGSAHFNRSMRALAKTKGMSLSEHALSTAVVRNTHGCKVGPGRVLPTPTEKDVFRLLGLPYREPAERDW

Homo sapiens [13] = species on record: Homo sapiens; assay: Inhibition of human DNA topoisomerase 2 at 100 uM
[14] = molecular target: T5, DNA polymerase iota (Homo sapiens) (UniProt Q9UNA4); assay: Inhibition of human DNA polymerase iota at 100 uM
T5 sequence (whole entry): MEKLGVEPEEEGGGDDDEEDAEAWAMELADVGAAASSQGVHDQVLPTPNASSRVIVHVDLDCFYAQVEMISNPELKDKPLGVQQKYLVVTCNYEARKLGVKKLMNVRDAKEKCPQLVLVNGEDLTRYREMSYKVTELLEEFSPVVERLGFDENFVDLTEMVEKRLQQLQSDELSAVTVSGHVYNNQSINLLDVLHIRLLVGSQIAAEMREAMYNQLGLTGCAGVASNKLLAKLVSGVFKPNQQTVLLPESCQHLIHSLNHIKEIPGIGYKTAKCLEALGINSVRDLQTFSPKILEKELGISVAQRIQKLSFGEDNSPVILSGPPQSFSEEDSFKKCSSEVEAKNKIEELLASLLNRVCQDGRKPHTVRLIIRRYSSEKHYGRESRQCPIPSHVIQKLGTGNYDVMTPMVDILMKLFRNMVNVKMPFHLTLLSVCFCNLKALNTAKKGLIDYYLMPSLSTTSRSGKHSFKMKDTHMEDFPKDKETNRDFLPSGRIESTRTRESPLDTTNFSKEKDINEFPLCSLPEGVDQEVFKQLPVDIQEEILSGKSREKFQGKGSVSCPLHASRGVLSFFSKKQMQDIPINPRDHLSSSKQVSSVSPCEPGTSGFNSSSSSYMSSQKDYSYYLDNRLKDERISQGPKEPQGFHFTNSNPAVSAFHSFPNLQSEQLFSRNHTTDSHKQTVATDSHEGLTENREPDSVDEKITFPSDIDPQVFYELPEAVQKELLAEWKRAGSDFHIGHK

Bos taurus [15] = species on record: Bos taurus; assay: Inhibition of calf primase DNA polymerase alpha at 100 uM
Bos taurus [16] = species on record: Bos taurus; assay: Inhibition of calf DNA polymerase alpha at 100 uM
DNA polymerase beta = DNA polymerase beta (Rattus norvegicus, UniProt P06766); assay: Inhibition of rat DNA polymerase beta
Brassica oleracea [17] = assay: Inhibition of cauliflower DNA polymerase alpha at 100 uM
[18] = molecular target: T6, DNA topoisomerase 1 (Homo sapiens) (UniProt P11387); assay: Inhibition of human DNA topoisomerase 1 at 100 uM
T6 sequence (whole entry): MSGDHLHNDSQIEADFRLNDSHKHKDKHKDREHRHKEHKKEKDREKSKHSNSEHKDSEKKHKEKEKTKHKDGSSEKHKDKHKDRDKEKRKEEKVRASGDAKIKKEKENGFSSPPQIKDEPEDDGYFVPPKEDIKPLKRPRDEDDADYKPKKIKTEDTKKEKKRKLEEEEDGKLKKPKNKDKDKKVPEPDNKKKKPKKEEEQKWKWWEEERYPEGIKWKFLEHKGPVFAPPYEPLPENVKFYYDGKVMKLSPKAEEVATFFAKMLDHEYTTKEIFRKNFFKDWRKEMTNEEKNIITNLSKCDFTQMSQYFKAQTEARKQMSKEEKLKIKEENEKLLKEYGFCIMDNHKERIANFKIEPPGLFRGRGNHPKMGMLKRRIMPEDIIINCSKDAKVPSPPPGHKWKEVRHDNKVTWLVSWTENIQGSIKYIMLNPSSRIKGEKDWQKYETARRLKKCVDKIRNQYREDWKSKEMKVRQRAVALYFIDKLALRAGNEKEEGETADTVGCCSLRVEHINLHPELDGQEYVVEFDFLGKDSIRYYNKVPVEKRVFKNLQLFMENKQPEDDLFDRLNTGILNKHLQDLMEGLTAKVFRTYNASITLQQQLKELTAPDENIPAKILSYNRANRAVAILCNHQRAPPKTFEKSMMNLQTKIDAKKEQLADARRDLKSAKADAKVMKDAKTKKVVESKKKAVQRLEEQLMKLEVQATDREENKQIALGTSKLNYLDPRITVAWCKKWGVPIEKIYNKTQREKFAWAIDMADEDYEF

Row | SMILES | Activity [1] | Activity (Homo sapiens [2]) | Activity (Bos taurus [3]) | Activity [4] | Activity (Escherichia phage T7) | IC50 (DNA polymerase kappa) | Activity (Escherichia coli) | Activity [5] | Activity (Homo sapiens [6]) | Activity [7] | Activity (Tequatrovirus T4) | Activity [8] | Activity [9] | Activity (Brassica oleracea [10]) | Activity [11] | Activity (Thermus aquaticus) | Activity [12] | Activity (Homo sapiens [13]) | Activity [14] | Activity (Bos taurus [15]) | other results
1 | COc1cc(O)c2c(=O)oc3c(c2c1)C(C)CC3=O (stereo not drawn) | inactive | inactive | Active | inactive | inactive | 59.8 µM | inactive | inactive | inactive | inactive | inactive | inactive | inactive | inactive | Active | inactive | Active | inactive | Active | inactive | Activity (Bos taurus [16]): inactive; IC50 (DNA polymerase beta): 11.9 µM; Activity (Brassica oleracea [17]): inactive; Activity [18]: inactive
2 | COc1cc(O)c2c(c1)C1(OC2=O)C(C)=CC(=O)C1O (stereo not drawn) [TALAROFLAVONE] | inactive | inactive | Active | inactive | inactive | 86.5 µM | inactive | inactive | inactive | inactive | inactive | inactive | inactive | inactive | Active | inactive | Active | inactive | Active | inactive | Activity (Bos taurus [16]): inactive; IC50 (DNA polymerase beta): 16.3 µM; Activity (Brassica oleracea [17]): inactive; Activity [18]: inactive
